Consider twelve molecules from article PMC9848269, “Investigation of novel alkyl/benzyl (4-sulphamoylphenyl)carbamimidothioates as carbonic anhydrase inhibitors” (Journal of Enzyme Inhibition and Medicinal Chemistry, 2023).

Read-outs that look alike come from different tables or passages of the source.

In assay [1] the target is T1, hCA I (Homo sapiens, UniProt P00915).
T1 construct: gene CA1; recombinant, obtained in-house; cytosolic
In words: stopped-flow CO2 hydration. The format is biochemical. The text has this:
stopped-flow CO2 hydration on hCA I

For assay [2], the target named is T2, hCA VII (Homo sapiens, UniProt P43166).
T2 construct: gene CA7; recombinant, obtained in-house; cytosolic
The assay can be described thus: stopped-flow CO2 hydration. The class given is biochemical. From the text:
stopped-flow CO2 hydration on hCA VII

For assay [3], the target named is T3, hCA II (Homo sapiens, UniProt P00918).
T3 construct: gene CA2; recombinant, obtained in-house; cytosolic
The assay can be described thus: stopped-flow CO2 hydration. The class given is biochemical. The text has this:
stopped-flow CO2 hydration on hCA II

Assay [4] deals with T4, hCA XIII (Homo sapiens, UniProt Q8N1Q1).
T4 construct: gene CA13; recombinant, obtained in-house; cytosolic
The assay can be described thus: biochemical. Also noted: stopped-flow CO2 hydration assay, phenol red 557 nm, Hepes pH 7.5, recombinant alpha-CA, 6 h preincubation. Here is the method: (§1) An applied photophysics stopped-flow instrument has been used for assaying the CA-catalysed CO2 hydration activity. Phenol red (at a concentration of 0.2 mM) was used as indicator, working at the absorbance maximum of 557 nm, with 20 mM Hepes (pH 7.5) as buffer for α-CAs or 20 mM TRIS (pH 8.4) as buffer for β-CAs, and 20 mM Na2SO4 (for maintaining constant the ionic strength), following the initial rates of the CA-catalysed CO2 hydration reaction for a period of 10 – 100 s. The CO2 concentrations ranged from 1.7 to 17 mM for the determination of the kinetic parameters and inhibition constants. For each inhibitor, at least six traces of the initial 5 – 10% of the reaction have been used for determining the initial velocity. The uncatalysed rates were determined in the same manner and subtracted from the total observed rates. Stock solutions of inhibitor (0.1 mM) were prepared in distilled – deionised water, and dilutions up to 0.01 nM were done thereafter with the assay buffer. Inhibitor and enzyme solutions were preincubated together for 6 h at room temperature prior to assay in order to allow for the formation of the E – I complex. The inhibition constants were obtained by nonlinear least-squares methods using PRISM 3 and the Cheng–Prusoff equation, as reported earlier[12]^,[13]^,[20]^,[21], and represent the mean from at least three different determinations. All CA isoforms were recombinant ones obtained in-house as reported earlier[22]^,[23] and their concentrations in the assay system ranged between 7.6–12.5 nM.

The target in assay [5] is T5, StCA2 (Salmonella enterica, UniProt O30898).
T5 construct: gene mig-5; recombinant, obtained in-house; beta-class CA
T5 sequence (O30898 41-246): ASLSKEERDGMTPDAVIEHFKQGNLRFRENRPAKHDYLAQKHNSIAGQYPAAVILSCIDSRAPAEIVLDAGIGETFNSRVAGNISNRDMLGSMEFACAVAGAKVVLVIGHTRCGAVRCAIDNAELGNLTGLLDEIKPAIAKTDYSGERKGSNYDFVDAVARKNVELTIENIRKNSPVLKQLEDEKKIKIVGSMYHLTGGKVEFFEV
Also on record: stopped-flow CO2 hydration assay, phenol red 557 nm, TRIS pH 8.4, recombinant beta-CA, 6 h preincubation. To be noted: inhibitor. The protocol: as §1, with “For each inhibitor, at least six traces of the initial 5 – 10% of the reaction have been used for determining the initial velocity.” left out

Assay [6] deals with T5, StCA2. In words: stopped-flow CO2 hydration. The class given is biochemical. The settings on record: 20 mM TRIS pH 8.4, 20 mM Na2SO4, CO2 1.7-17 mM; 6 h preincubation at room temperature. From the text:
stopped-flow CO2 hydration on StCA2

The next assay deals with T6, StCA1.
T6 construct: recombinant, obtained in-house; beta-class CA
The assay can be described thus: stopped-flow CO2 hydration. The class given is biochemical, Salmonella enterica subsp. enterica serovar Typhimurium. The settings on record: 20 mM TRIS pH 8.4, 20 mM Na2SO4, CO2 1.7-17 mM; 6 h preincubation at room temperature. The text has this:
stopped-flow CO2 hydration on StCA1

In assay [7] the target is T1, hCA I. In words: biochemical. Also noted: stopped-flow CO2 hydration assay, phenol red 557 nm, Hepes pH 7.5, recombinant alpha-CA, 6 h preincubation. The protocol:
as §1

In assay [8] the target is T2, hCA VII. In words: biochemical. Also noted: stopped-flow CO2 hydration assay, phenol red 557 nm, Hepes pH 7.5, recombinant alpha-CA, 6 h preincubation. Here is the method:
as §1

Assay [9] has as its target T3, hCA II. The assay can be described thus: biochemical. Also on record: stopped-flow CO2 hydration assay, phenol red 557 nm, Hepes pH 7.5, recombinant alpha-CA, 6 h preincubation. Here is the method:
as §1

For assay [10], the target named is T4, hCA XIII. The assay can be described thus: stopped-flow CO2 hydration. The class given is biochemical. The text has this:
stopped-flow CO2 hydration on hCA XIII

T4 sequence (Q8N1Q1 whole entry): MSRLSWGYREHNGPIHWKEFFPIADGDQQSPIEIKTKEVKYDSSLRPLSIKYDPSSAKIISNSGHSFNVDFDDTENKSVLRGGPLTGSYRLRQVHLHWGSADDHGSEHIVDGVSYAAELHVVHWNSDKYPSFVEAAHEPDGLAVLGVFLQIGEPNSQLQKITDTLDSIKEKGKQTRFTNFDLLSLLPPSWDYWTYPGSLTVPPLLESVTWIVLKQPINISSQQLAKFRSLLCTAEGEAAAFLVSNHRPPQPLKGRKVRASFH
T1 sequence (P00915 2-261): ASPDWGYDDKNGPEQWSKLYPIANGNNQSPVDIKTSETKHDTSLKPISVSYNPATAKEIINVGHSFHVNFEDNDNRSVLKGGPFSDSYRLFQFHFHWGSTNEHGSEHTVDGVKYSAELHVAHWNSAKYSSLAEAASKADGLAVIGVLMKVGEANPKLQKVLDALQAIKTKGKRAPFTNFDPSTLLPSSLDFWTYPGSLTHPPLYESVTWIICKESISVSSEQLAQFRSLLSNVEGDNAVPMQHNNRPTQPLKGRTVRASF
T2 sequence (P43166 whole entry): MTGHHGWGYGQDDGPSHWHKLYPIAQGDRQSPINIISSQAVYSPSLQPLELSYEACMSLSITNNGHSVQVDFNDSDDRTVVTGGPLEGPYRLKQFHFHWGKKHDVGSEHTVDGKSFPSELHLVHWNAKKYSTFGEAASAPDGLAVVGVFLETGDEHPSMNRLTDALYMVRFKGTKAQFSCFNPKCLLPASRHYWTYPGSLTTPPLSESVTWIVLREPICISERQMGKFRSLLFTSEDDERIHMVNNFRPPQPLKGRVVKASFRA

For orientation: Ki means the dissociation constant of the complex between target and ligand, obtained from inhibition or displacement. Take `C=CCSC(N)=Nc1ccc(S(N)(=O)=O)cc1` [8e, Allyl (4-sulphamoylphenyl)carbamimidothioate]: the Ki at hCA I [1] is 38.5 nM; at hCA VII [2] it was 1.8 nM; on hCA II [3] it was 8.2 nM; at hCA XIII [4], 814 nM; at StCA2 [5] it was 4990 nM.
On to `NC(=Nc1ccc(S(N)(=O)=O)cc1)SCc1ccccc1` [8g, Benzyl (4-sulphamoylphenyl)carbamimidothioate], for which the Ki on StCA2 [6] was 902 nM; at StCA1 it was 52.2 nM; on hCA I [7] it was 68.1 nM; on hCA VII [8], 2.4 nM; on hCA XIII [4] it was 491 nM.
For the molecule `NC(=Nc1ccc(S(N)(=O)=O)cc1)SCc1ccc(Br)cc1` [8i, 4-Bromobenzyl (4-sulphamoylphenyl)carbamimidothioate], the Ki at hCA I [1] was 60 nM; on hCA II [9] it was 29.9 nM; at hCA VII [8] it was 2.1 nM; on hCA XIII [4], 907 nM; at StCA2 [5], 9700 nM.
Regarding `CCCCCCCSC(N)=Nc1ccc(S(N)(=O)=O)cc1` [8d, Heptyl (4-sulphamoylphenyl)carbamimidothioate], the Ki on StCA1 worked out at 71.3 nM; at hCA II [9], 9.3 nM; on hCA VII [8] it was 2.7 nM; on hCA XIII [4], 926 nM; on StCA2 [5], 955 nM.
For `CCCCSC(N)=Nc1ccc(S(N)(=O)=O)cc1` [8b, Butyl (4-sulphamoylphenyl)carbamimidothioate], the Ki at StCA2 [6] was 348 nM; at hCA I [7], 76.4 nM; at hCA II [9], 73.6 nM; on hCA VII [8], 13.8 nM.
On to `CSC(N)=Nc1ccc(S(N)(=O)=O)cc1` [8a, Methyl (4-sulphamoylphenyl)carbamimidothioate], for which the Ki at StCA2 [6] was 270 nM; on hCA XIII [10] it was 97.5 nM; on hCA I [7], 90.4 nM; on hCA II [9], 85.8 nM; on hCA VII [8] it was 18.9 nM.
Take `NC(=Nc1ccc(S(N)(=O)=O)cc1)SCc1ccc(C(F)(F)F)cc1` [8l, 4-(Trifluoromethyl)benzyl (4-sulphamoylphenyl)carbamimidothioate]: the Ki on hCA XIII [10] came out at 80.5 nM; on hCA I [7], 73.5 nM; on hCA II [9], 8.9 nM; at hCA VII [8], 2.3 nM; on StCA2 [5] it was 5890 nM.
`NC(=Nc1ccc(S(N)(=O)=O)cc1)SCc1ccc(Cl)cc1` [8h, 4-Chlorobenzyl (4-sulphamoylphenyl)carbamimidothioate]: the Ki on hCA I [7] amounted to 73.2 nM; on hCA II [9], 34.4 nM; on hCA VII [8], 2 nM; at hCA XIII [4] it was 892 nM; at StCA2 [5], 6680 nM.
Turning to `C#CCSC(N)=Nc1ccc(S(N)(=O)=O)cc1` [8f, Prop-2-yn-1-yl (4-sulphamoylphenyl)carbamimidothioate], the inhibition constant (Ki) on hCA II [3] was found to be 6.9 nM; on hCA I [7] it was 92.5 nM; on hCA VII [8] it was 5.5 nM; on hCA XIII [4], 352 nM; at StCA2 [5], 7120 nM.
For `NC(=Nc1ccc(S(N)(=O)=O)cc1)SCc1cc(F)cc(F)c1` [8m, 3,5-Difluorobenzyl (4-sulphamoylphenyl)carbamimidothioate], the Ki on hCA VII [2] was determined as 1.2 nM; on hCA II [3], 1.7 nM; at hCA XIII [10], 75.6 nM; at hCA I [7], 82.2 nM; at StCA2 [5] it was 6310 nM.
For `NC(=Nc1ccc(S(N)(=O)=O)cc1)SCc1ccc([N+](=O)[O-])cc1` [8k], the Ki was 77.2 nM at hCA I [7]; 9 nM at hCA II [9]; 2.6 nM on hCA VII [8]; 856 nM on hCA XIII [4]; 6850 nM at StCA2 [5].
With `N#Cc1ccc(CSC(N)=Nc2ccc(S(N)(=O)=O)cc2)cc1` [8j, 4-Cyanobenzyl (4-sulphamoylphenyl)carbamimidothioate], the inhibition constant Ki turned out to be 1.5 nM at hCA VII [2]; 55.7 nM on StCA1; 82.8 nM on hCA I [7]; 21.5 nM on hCA II [9]; 302 nM on hCA XIII [4]; 5190 nM at StCA2 [5].
